Assay results published in the supplement of paper PMC10307832.

Tests used:
Experiment in all cases: relative viability (nuclei count vs DMSO), 5 days (fraction); higher = more cells survive
MLN4924 = compound: NS(=O)(=O)OC[C@@H]1C[C@@H](n2ccc3c(N[C@H]4CCc5ccccc54)ncnc32)C[C@@H]1O [MLN4924]
Outline: (§1)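 In 1536-well plates, lung cancer cell lines rested overnight at 37 °C before five library-drug doses (not always all listed), √10 apart, were pinned onto vehicle-anchored plates. Nuclei were counted with MetaXpress from 4× Hoechst images taken after 5 days without medium change. Viability compares treated-well with vehicle-well nuclei as a median over plates, and plates needed control CV below 25% plus at least one doubling to pass.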

Carboplatin = compound: C1CC(C1)(C(=O)O)C(=O)O.[NH2-].[NH2-].[Pt+2] [Carboplatin]
Outline: as §1

GSK126 = compound: CC[C@H](C)N1C=C(C2=C(C=C(C=C21)C3=CN=C(C=C3)N4CCNCC4)C(=O)NCC5=C(C=C(NC5=O)C)C)C [GSK126]
Outline: as §1

Cell Line | relative viability (MLN4924; 0.04 µM) | relative viability (MLN4924; 0.1265 µM) | relative viability (MLN4924; 0.4 µM) | relative viability (MLN4924; 1.265 µM) | relative viability (MLN4924; 4 µM) | relative viability (Carboplatin; 0.08 µM) | relative viability (Carboplatin; 0.253 µM) | relative viability (Carboplatin; 0.8 µM) | relative viability (Carboplatin; 2.53 µM) | relative viability (Carboplatin; 8 µM) | relative viability (GSK126; 0.08 µM) | relative viability (GSK126; 0.253 µM) | relative viability (GSK126; 0.8 µM) | relative viability (GSK126; 2.53 µM) | relative viability (GSK126; 8 µM)
LU99A | 0.918 | 0.601 | 0.405 | 0.178 | 0.195 | 1.15 | 1.08 | 1.03 | 0.901 | 0.702 | 1.04 | 0.985 | 0.912 | 1.02 | 0.904
NCI-H1299 | 1.01 | 0.823 | 0.676 | 0.287 | 0.212 | 1.05 | 0.98 | 1.02 | 0.969 | 0.943 | 1.02 | 0.994 | 0.988 | 1 | 0.998
NCI-H1355 | 0.976 | 1.01 | 0.783 | 0.369 | 0.34 | 1.09 | 1.05 | 0.989 | 1 | 0.876 | 1.08 | 0.982 | 0.975 | 1.06 | 1.01
HCC-15 | 0.62 | 0.483 | 0.158 | 0.0986 | 0.103 | 1.03 | 1.05 | 0.964 | 0.94 | 0.864 | 1.07 | 1.03 | 0.988 | 1.01 | 0.909
LXF-289 | 0.887 | 0.822 | 0.556 | 0.208 | 0.146 | 1.03 | 1.05 | 0.967 | 0.987 | 0.973 | 1.03 | 1.05 | 1.02 | 1.01 | 1.01
201T | 1.09 | 0.989 | 0.73 | 0.375 | 0.307 | 1.01 | 0.994 | 1.03 | 0.971 | 0.9 | 1.03 | 1.01 | 1.02 | 1.06 | 1.07
HOP-62 | 0.814 | 0.74 | 0.226 | 0.067 | 0.101 | 1.03 | 1.03 | 1.06 | 0.981 | 0.833 | 1.01 | 1.02 | 1.03 | 0.968 | 0.973
NCI-H1703 | 0.43 | 0.314 | 0.255 | 0.136 | 0.141 | 1.27 | 1.1 | 0.998 | 1.05 | 1.01 | 1.21 | 0.834 | 0.96 | 1.04 | 1.13
NCI-H1975 | 0.96 | 1.14 | 1.38 | 0.843 | 0.447 | 1 | 0.944 | 0.968 | 0.931 | 0.9 | 0.961 | 0.888 | 0.93 | 0.923 | 0.934
NCI-H2023 | 0.986 | 0.739 | 0.207 | 0.0741 | 0.0639 | 1.1 | 1.08 | 0.959 | 0.572 | 0.249 | 1.13 | 1.04 | 1.02 | 1.22 | 1.09
EBC-1 | 0.855 | 0.703 | 0.283 | 0.104 | 0.131 | 1.07 | 0.987 | 0.97 | 0.969 | 0.851 | 1.03 | 0.966 | 0.969 | 0.978 | 0.947
COR-L23 | 0.98 | 0.882 | 0.661 | 0.233 | 0.135 | 0.961 | 0.928 | 0.979 | 0.759 | 0.417 | 1.1 | 1.02 | 0.944 | 0.986 | 1.02
NCI-H1793 | 0.91 | 0.982 | 1.01 | 0.473 | 0.361 | 0.968 | 0.98 | 0.908 | 0.906 | 1.1 | 1.07 | 0.948 | 0.826 | 1.11 | 0.855
A549 | 0.946 | 0.863 | 0.658 | 0.0802 | 0.0487 | 1.02 | 1.01 | 0.938 | 0.935 | 0.563 | 1.08 | 0.946 | 0.955 | 1.01 | 0.987
CAL-12T | 0.854 | 0.82 | 0.485 | 0.344 | 0.198 | 1.02 | 1.04 | 1 | 1.07 | 0.877 | 1.09 | 0.986 | 0.973 | 1.07 | 1.17
NCI-H1993 | 0.877 | 0.758 | 0.596 | 0.531 | 0.658 | 0.988 | 1.02 | 0.967 | 0.878 | 0.8 | 0.97 | 0.982 | 0.955 | 1.02 | 1.03
ChaGo-K-1 | 0.858 | 0.833 | 0.503 | 0.238 | 0.23 | 0.989 | 0.959 | 0.93 | 0.818 | 0.614 | 1.01 | 1.03 | 0.973 | 1.05 | 1.02
